Each structure is given as a SMILES string.

A word on the melting point: it is the temperature, or range, at which the solid turns liquid. `Cc1ncc(CN2C(=O)c3ccccc3C2=O)n1-c1ccc(Cl)cc1Cc1ccccc1F` showed a melting point of 152 to 156 °C.

With `CC(C)c1cc(C(=O)Nc2ccc(C(=O)O)cn2)sc1C(C)C`, the melting point is over 300 °C.

In the case of `N#Cc1ccc(NC(=N)Nc2ccc(C#N)cc2)cc1`, the melting point lay in the range of 195 to 200 °C.

`CNc1cc(-n2cc(C(=O)O)c(=O)c3cc(F)c(NC)c(C)c32)c(F)cc1F` registered a melting point of 220 to 222 °C.

In the case of `COc1ccc(COc2ccc(C(=O)C3=C(O)C(=O)N(c4ccc(C)nn4)C3c3ccc(OC(F)(F)F)cc3)cc2)cc1` (stereo not drawn), the melting point is 206 to 209 °C.

In turn, `Cc1cc2ccccc2c(-c2ccccc2I)n1` gave a melting point of 111 to 112 °C.

Consider `Cn1ncc(/C=C/C(=O)Nc2ccc(Cc3nccs3)cc2)c1-c1ccc(F)cc1`, for which the melting point lay in the range of 209 to 210 °C.

In turn, `COC(=O)c1nc(-c2ccc(Cl)c(OC)c2F)nc(N)c1Br` showed a melting point of 173 to 175 °C.

Turning to `CC(C)C(O)(C#Cc1ccsc1)c1cncnc1` (stereo not drawn), the melting point is 102 to 105 °C.

In turn, `Cc1cccc(NC(=O)Nc2cccc3c2C2CC(O)CCN2C3=O)n1` (stereo not drawn) had a melting point of 240 to 242 °C.

Turning to `CC1(c2ccccc2)Cc2cc(OCC#N)c(Cl)c(Cl)c2C1=O` (stereo not drawn), the melting point was 163 to 165 °C.

For `Cc1oc(-c2ccc(S(C)(=O)=O)cc2)c(Oc2ccc(Cl)cc2)c(=O)c1Cl`, the melting point amounted to 274 °C.

Take `CCOc1cc(-c2nc(N)sc2CCC2CCCCC2)c(OC)cc1C`: the melting point lay within 96 to 97 °C.

The molecule `CC1(C)CC(=O)N(CCCCN2CCN(c3nsc4ccccc34)CC2)C(=O)C1` registered a melting point of 146 to 147 °C.

In the case of `COC(=O)CCS(=O)(=O)c1cc(C(C)(C)C)c(O)c(C(C)(C)C)c1`, the melting point fell in the range of 109 to 111 °C.

`CC(C)N(C(=O)COc1ccc(-c2ccc(C(=O)O)cc2C(F)(F)F)cc1)C(C)C` displayed a melting point of 132 to 134 °C.

As to `O=c1c2ccccc2sc2ccc(S(=O)(=O)C(F)(F)F)cc12`, the melting point lay within 163 to 164 °C.

`CC(C)(O)CCOc1c(-c2ccc(S(C)(=O)=O)cc2)cnn(-c2ccc(F)c(F)c2)c1=O` returned a melting point of 131 to 133 °C.

As to `CC(C)C1(C)N=C(c2ncc(O)cc2C(=O)O)NC1=O` (stereo not drawn), the melting point lay within 255 to 257 °C.

In turn, `CN(C)Cc1cc(-c2ccc3c(c2)CCO3)nn(CC2CC2)c1=O` showed a melting point of 109 to 110 °C.

`COc1nc(C(F)(F)C(F)(F)F)cc(=O)n1-c1cc(C(=O)OC(C)C)c(Cl)cc1F` came in with a melting point of 82 to 84 °C.

For `CCn1cc(C(=O)O)c(=O)c2cc(F)c(N3CCOC(CN(C)C)C3)c(F)c21` (stereo not drawn), the melting point fell in the range of 185 to 188 °C.

`CC(C)(CCCN)C(Cc1c[nH]c([N+](=O)[O-])n1)=NO` had a melting point of 136 to 137 °C.

In turn, `CCCC(=O)c1ccc(OC)c(C(=O)Cl)c1` displayed a melting point of 65 °C.

In turn, `CC(C)CNc1c([N+](=O)[O-])cnc2cccnc12` gave a melting point of 97 to 99 °C.

With `Cc1ccc(OCCN2CCN(c3nc(N)nc(-c4cc(Cl)ccc4Cl)n3)CC2)cc1`, the melting point was in the range of 140 to 141 °C.

On to `CCOC(=O)C1=C(C)Nc2c(c(C)nn2C)C1c1ccccc1[N+](=O)[O-]` (stereo not drawn), for which the melting point was in the range of 194 to 198 °C.

`Cc1nc(NC(=O)c2ccccc2)sc1C(=O)NCc1ccccc1F` had a melting point of 180 to 183 °C.

In turn, `O=C(Nc1cc(Cl)cc(Cl)c1O)C(=O)Nc1ncc(Cl)cc1Cl` returned a melting point of 245 °C.

`O=c1ccoc(C(O)c2cccc(F)c2)c1OCc1ccccc1` (stereo not drawn) registered a melting point of 95 to 96 °C.

Turning to `CN(C)CCCNC(=O)CCCCCCCCCCCNC(N)=NC(=O)c1nc(Cl)c(N)nc1N`, the melting point is 82 to 84 °C.

Molecule `O=C(NCCCN1CCN(c2ccccc2OCC(F)(F)F)CC1)c1csc2c(=O)cc(-c3ccccc3)oc12` registered a melting point of 152 to 158 °C.

`C[C@H](COc1ccccc1)Nc1nc(F)nc2c1ncn2[C@@H]1O[C@H](CO)[C@@H](O)[C@H]1O` showed a melting point of 148 to 150 °C.

In turn, `CC(C)(C)OC(=O)N1C(=O)[C@H]2C=C[C@@H]1C2` gave a melting point of 70.5 to 71.5 °C.

`CSc1ccc(-c2coc3ccc(-c4nnc(O)o4)cc23)cc1` showed a melting point of 211 to 212 °C.

Molecule `O=C(CI)Oc1cccc2c1C(=O)c1cn3c(c1C2=O)Cc1ccccc1C3` came in with a melting point of over 260 °C.

On to `CCOC(=O)c1cc(=O)cc(-c2ccc(OC)cc2)o1`, for which the melting point is 131 to 133 °C.

As to `COc1cc2ccc3c4cc5c(cc4ncc3c2cc1OC)OCO5`, the melting point turned out to be 171 °C.

In the case of `COc1ccc(NN=C(Sc2cc(C)ccc2C)C(C)=O)cc1`, the melting point was in the range of 131 to 134 °C.

In turn, `COc1ccc(-c2cncc(C#N)c2Nc2ccc3[nH]ccc3c2C)cc1OC` showed a melting point of 130 to 133 °C.

For `O=C(C1CC1)C(C(O)C(Cl)(Cl)Cl)n1cncn1` (stereo not drawn), the melting point fell in the range of 173 to 175 °C.

Take `O=C(O)c1c2c(nc3ccc(F)cc13)-c1ccc(-c3ccc(F)cc3)cc1CC2`: the melting point was over 300 °C.

Molecule `N#CC1(Nc2ccccc2)CCCCC1` yielded a melting point of 67 to 69 °C.

Turning to `Fc1ccc(-c2ccc(-c3cn([C@H]4CN5CCC4CC5)nn3)cc2)cn1`, the melting point was determined as 181 °C.

On to `Nc1c(Cl)cc(C(F)(F)F)c(Cl)c1Cl`, for which the melting point lay in the range of 37 to 39 °C.

Consider `CCOC(=O)C1=C(C)NC(C)=C(C(=O)OCC)C1c1ccccc1/C=C/C(=O)OCC(C)C`, for which the melting point fell in the range of 172 to 174 °C.

`Cn1ccnc1C1(CCCCc2ccc(NC(=O)c3ccccc3)cc2)c2ccccc2-c2ccccc21` registered a melting point of 146 to 148 °C.

The molecule `CN1C(=O)CC[C@]2(C)c3ccc(-c4cccc(C(F)(F)F)c4)cc3CC[C@@H]12` showed a melting point of 64 to 87 °C.

The molecule `COc1ccc(C2C(Oc3ccccc3)C(=O)N2c2cc(OC)c(OC)c(OC)c2)cc1O` (stereo not drawn) gave a melting point of 176 to 180 °C.

Consider `CC12CC(=O)C3C(C=CC4=CC(=O)CCC43C)C1CCC2=O` (stereo not drawn), for which the melting point was found to be 237 °C.

For the molecule `N#Cc1c(-c2cccc(F)c2)c(Cl)n2c1CNCC2`, the melting point fell in the range of 104 to 106 °C.

Regarding `CN(C)C(=O)CC1(C)OCCc2c1[nH]c1c3c(ccc21)CCCC3` (stereo not drawn), the melting point lay in the range of 176 to 178 °C.

Take `COc1cc2ncnc(NC3=CC(=O)C(Oc4ccccc4)=CC3=O)c2cc1OC`: the melting point lay in the range of 228 to 234 °C.

`COc1ccc(C(O)CN2c3nc(-c4ccncc4)cc(=O)n3CCC2c2ccccc2)cc1` (stereo not drawn) showed a melting point of 150 to 152 °C.

As for `Cn1ccc(-c2ccc(F)cc2)c1-c1ccc(F)cc1`, the melting point lay within 129 to 130 °C.

Molecule `O=C(c1cc(O)ccc1Nc1ccncc1)N1CCCCC1` showed a melting point of 242 to 243 °C.

As for `COc1ccccc1NC(=O)Nc1nc(N2CCCCC2)nc(N(CCC(=O)O)Cc2cccc(C)c2)n1`, the melting point lay within 91 to 92 °C.

Molecule `CS(=O)(=O)Nc1ccc(C#N)cc1Nc1ccc(F)cc1F` had a melting point of 167 to 169 °C.

With `CCOC(=O)C(C(=O)C(C)C)C(CC(=O)C(C)C)c1ccc(F)cc1` (stereo not drawn), the melting point lay in the range of 57 to 60 °C.

Turning to `NC(CCNc1ccccc1)=NO`, the melting point was 91 to 91.5 °C.

In turn, `Cn1cc(-c2cncc(OC3SCC(O)C(O)C3O)c2)cn1` (stereo not drawn) displayed a melting point of 216 °C.

Turning to `N#Cc1[nH]ccc1-c1ccccc1Cl`, the melting point was in the range of 114 to 115 °C.

On to `COc1ccc(C(=O)Nc2ccc(OC)cc2NC(=O)c2ccc(OC)cc2)cc1`, for which the melting point was in the range of 238 to 239 °C.

The molecule `Cc1ccn2cc(CCc3ccc4nc(N=CN(C)C)oc4c3)nc2c1` registered a melting point of 150 to 151 °C.

Take `Nc1ccccc1Oc1ccccc1-c1ccccc1Oc1ccccc1N`: the melting point stood at 175 °C.

Regarding `Cc1ccc(C(=O)c2ccc(C)cc2F)c(F)c1`, the melting point is 84 to 85.5 °C.

As to `Cc1c(C)c(NC(=O)CC(C)(C)C)c2c(c1C)C(c1ccc(C(C)C)cc1)CO2` (stereo not drawn), the melting point lay within 190 to 191 °C.

For `COc1cncnc1-c1ssc(=S)c1C`, the melting point came to 136 °C.

`CCOC(=O)C=Cc1ccc(C(=O)Cc2ccccc2)cc1` returned a melting point of 110 to 111 °C.

`CNC1([C@@H]2CCN(c3ccc4c(=O)c(C(=O)O)cn([C@@H]5C[C@@H]5F)c4c3C)C2)CC1` showed a melting point of 223 to 224 °C.

As for `CCOC(=O)C(Cc1cnc2ccc(OC)cc2c1)NC(=O)OC(C)(C)C` (stereo not drawn), the melting point is 127 °C.

In turn, `Cc1ccc(C2CCN(c3c(C)c(C)c4c(c3C)[C@@H](c3ccc(C)cc3)C(C)(C)O4)CC2)cc1` returned a melting point of 165 to 167 °C.

On to `COC(=O)c1cc(OC)c(CNC(C)=O)c(OC)c1`, for which the melting point stood at 184 °C.

Regarding `Nc1cnccc1Oc1ccc(Cl)cc1`, the melting point fell in the range of 104 to 106 °C.

In turn, `Cc1cccc(C)c1NCCN(C)CC(O)COc1cccc2[nH]ncc12` (stereo not drawn) displayed a melting point of 120 to 121 °C.

In the case of `Cc1ccc(C(=O)C(=O)c2ccncc2)cc1`, the melting point came to 65 °C.

On to `COc1ccc(Sc2[nH]c3cccc4c3c2CC2C4C=C(C)CN2C)cc1` (stereo not drawn), for which the melting point is over 250 °C.

For the molecule `CCOC(=O)c1c(SCc2ccc(OC)cc2)nc2c(F)c(F)c(F)cc2c1O`, the melting point lay within 174 to 176 °C.

Molecule `COC(=O)c1ccc2nc3n(c(=O)c2c1)CCC3=Cc1ccccc1C` yielded a melting point of 181 to 183 °C.

Consider `CCCC12COC(c3ccc(Cl)cc3)(CC1=O)OC2`, for which the melting point was determined as 96 °C.

Molecule `CC1(C)CCc2c(N3CCOCC3)nc3sc4c(NCc5cccc6ccccc56)ncnc4c3c2C1` showed a melting point of 266 to 267 °C.

Take `CCOC(=O)Nc1c(C)cc(Cl)cc1C(=O)O`: the melting point lay within 124 to 126 °C.

For the molecule `COC(=O)c1cccc([N+](=O)[O-])c1CS(N)(=O)=O`, the melting point is 119 to 123 °C.

Molecule `COc1cc2c(cc1OCc1ccccc1)CCN(C(=O)CC13CC4CC(CC(C4)C1)C3)C2` gave a melting point of 133 to 135 °C.

The molecule `CC1CC(=O)NN=C1c1ccc2c(c1)C1(CC1)C(=O)N2` (stereo not drawn) displayed a melting point of 291 to 293 °C.

In the case of `CNC(=O)c1cc2c(Oc3ccc(C(F)(F)F)cc3)cnc(Cl)c2s1`, the melting point was in the range of 178 to 179 °C.

Molecule `CS(=O)(=O)c1ccc(NC(=O)c2ccccc2SSc2ccccc2C(=O)Nc2ccc(S(C)(=O)=O)cc2)cc1` yielded a melting point of 236 to 238 °C.

In the case of `COC(=O)CN(C)CCNC(=O)c1nc(Cl)c(N)nc1N`, the melting point lay in the range of 132 to 134 °C.

(Values after a melting point compilation (Tetko et al.; mined from patent text by program, amines drawn as free bases though some values may be those of a salt).)
